# Measured values as given in publication PMC3433162 (Analytical chemistry, 2012).
# pKd: −log10 of the molar value.
# Legend:
# [1] = target: bovine carbonic anhydrase (BCA) (Bos taurus, UniProt P00921); experiment: biochemical; type: binding
# carbonic anhydrase = conditions: read-out: Kd or Ki; cited from earlier work
# Chain of bovine carbonic anhydrase (BCA) (P00921 whole entry): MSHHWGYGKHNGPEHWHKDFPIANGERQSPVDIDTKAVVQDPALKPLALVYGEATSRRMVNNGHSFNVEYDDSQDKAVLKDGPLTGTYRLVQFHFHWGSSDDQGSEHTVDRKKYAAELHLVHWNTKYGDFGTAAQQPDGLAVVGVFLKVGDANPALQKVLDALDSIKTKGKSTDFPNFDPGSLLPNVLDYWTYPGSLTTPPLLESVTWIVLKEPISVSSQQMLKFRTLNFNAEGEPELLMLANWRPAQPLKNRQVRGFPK
Compound,pKd [1],pKd (carbonic anhydrase)
Cc1ccc(S(N)(=O)=O)cc1 [4-methylbenzene sulfonamide],6.54,
methane sulfonamide,,3.49 to 4.15
